As usually defined, the LD50 is the dose expected to kill half of the subjects tested. As usually defined, the ED50 is the dose at which the effect has come halfway, by size or by number of responders.

For data set [1] the following is noted: literature; cited from earlier work.
Another data set has as its system E. coli NIHI JC-2. Description: Minimum inhibitory concentration (MIC), agar plate dilution method. Type of data set: cell-based. The conditions noted are these: Escherichia coli, NIHIJC2; 10^6 CFU inoculated, 37° C., 18 hours. The protocol: (§1) With regard to the novel compounds obtained according to this invention and the compounds of Reference Examples, their minimum inhibitory concentrations (MIC) were determined by the agar plate dilution method in accordance with the MIC measuring standard method of The Chemotherapeutic Society of Japan, whereby 10^6 colony forming units were inoculated and the minimal concentration to inhibit the microbial growth after inclubation at 37° C. for 18 hours were determined, as shown as μg/ml in Table.

The test system of the next data set is E. coli W3630/Rms212. Described as above. Type of data set: cell-based. Particulars: Escherichia coli, W3630/RMS212, 18 h, read-out: minimum inhibitory concentration (MIC). The protocol:
as §1

The test system of a further data set is Pr. vulgaris GN7919. Described as above. Particulars: Proteus vulgaris, GN7919; 10^6 CFU inoculated, 37° C., 18 hours. Type of data set: cell-based. As to the method:
as §1

A further data set concerns E. coli W3630/Rms213. Described as above. Type of data set: cell-based. The conditions noted are these: Escherichia coli, W3630/RMS213, 18 h, read-out: minimum inhibitory concentration (MIC). The protocol: as §1
The subject of another data set is M. luteus ATCC9341. The description is as above. Type of data set: cell-based. Particulars: Micrococcus luteus, ATCC9341; 10^6 CFU inoculated, 37° C., 18 hours. The protocol:
as §1

The next data set concerns K. pneumoniae PC1602. The description is as above. Type of data set: cell-based. Particulars: Klebsiella pneumoniae, PC1602; 10^6 CFU inoculated, 37° C., 18 hours. The protocol:
as §1

Another data set deals with Al. fecalis IFO13111. Described as above. Type of data set: cell-based. Particulars: 10^6 CFU inoculated, 37° C., 18 hours. The protocol:
as §1

The test system of another data set is Ser. marcescens IMA 1136. The data set is described as above. Type of data set: cell-based. Particulars: Serratia marcescens, IMA1136; 10^6 CFU inoculated, 37° C., 18 hours. As to the method:
as §1

The test system of the next data set is B. fragilis GM7000. The description is as above. Type of data set: cell-based. The conditions noted are these: Bacteroides fragilis, GM7000; 10^6 CFU inoculated, 37° C., 18 hours. The protocol: as §1
Another data set deals with B. fragilis V-280-1. The description is as above. Type of data set: cell-based. The conditions noted are these: Bacteroides fragilis, V2801; 10^6 CFU inoculated, 37° C., 18 hours. As to the method:
as §1

The next data set has as its system S. aureus FAD209P JC-1. The description is as above. Type of data set: cell-based. The conditions noted are these: Staphylococcus aureus, FAD209PJC1; 10^6 CFU inoculated, 37° C., 18 hours. As to the method: as §1
The next data set concerns Pr. morganii IFO3848. The data set is described as above. Type of data set: cell-based. The conditions noted are these: Morganella morganii, IFO3848; 10^6 CFU inoculated, 37° C., 18 hours. The protocol:
as §1

Another data set relates to F. varium ATCC8501. Described as above. Type of data set: cell-based. Particulars: Fusobacterium varium, ATCC8501; 10^6 CFU inoculated, 37° C., 18 hours. The protocol: as §1
In another data set the test system is Ent. cloacae 963. Described as above. Type of data set: cell-based. Particulars: Enterobacter cloacae, 963; 10^6 CFU inoculated, 37° C., 18 hours. The protocol: as §1
The next data set is described as follows: Acute toxicity test. Type of data set: in vivo. The conditions noted are these: for LD50: mouse, in vivo, iv, route not restated (follows intravenous paragraph), read-out: 50% lethal dose (LD50); for survival: intravenous. The protocol: Out of the novel compounds obtained according to this invention, SUN 4435 and SUN 5555 were selected to carry out an acute toxicity test. As an animal, there were employed ICR strain mice (4-weeks aged), which were treated by oral and intravenous application of the compounds.

Data set [2] relates to S. aureus Smith. Description: Therapeutic effect against experimental infection in mice (ED50). Particulars: survival after 6 days, Probit method. Type of data set: in vivo, S. aureus; ICR strain male mice. As to the method:
(§2) Out of the novel compound obtained according to this invention, SUN 4435 was selected to carry out a treatment experiment with infected animals. As an animal, there were employed ICR strain male mice (5-weeks aged, with an average body weight of 29.1 g), which were infected intraperitoneally with a test microorganism, S. aureus Smith or E. coli KC-14, and 24 hours later, treated by subcutaneous or oral application of SUN 4435 or SUN 5555. ED50 values were determined from the survival rates found after 6 days in accordance with the Probit method.

For data set [3], the system named is E. coli KC-14. The description is as above. Type of data set: in vivo, E. coli; ICR strain male mice. Particulars: survival after 6 days, Probit method. The protocol:
as §2

The test system of data set [4] is E. coli KC-14. Description: Therapeutic effect against experimental infection of mice (survival). Type of data set: in vivo, E. coli; ICR strain male mice. As to the method: (§3) Out of the novel compounds obtained according to this invention, SUN 4435 was selected to carry out a treatment experiment with infected animals. As an animal, there were employed ICR strain male mice (5-weeks aged, with a body weight of 23 to 27 g), which were inoculated intraperitoneally with S. aureus Smith or E. coli KC-14 and 2 hours later, treated by subcutaneous or oral application of SUN 4435.

The subject of data set [5] is S. aureus Smith. Described as above. Type of data set: in vivo, S. aureus; ICR strain male mice. The protocol: as §3
For another data set, the system named is S. pyogenenes. Description: Sensitivity of clinically isolated strains. Type of data set: cell-based. The conditions noted are these: clinical isolates.
Another data set relates to M. morganii. Description: Sensitivity of clinically isolated strains. Type of data set: cell-based. Particulars: Morganella morganii; clinical isolates. As to the method:
(§4) With regard to the novel compound, SUN 5555, as obtained according to this invention, sensitivities were determined toward the S. aureus strain 87, E. coli strain 88, Klebsiella sp. strain 63, P. mirabillis strain 30, P. vulgaris strain 41, M. morganii strain 29, P. rettgeri strain 17, S. marcescens strain 88, A. calcoaceticus strain 57 and H. influenza strain 25. The determinations were carried out in accordance with the minimal growth inhibitory concentration measuring method as specified by The Chemotherapeutic Society of Japan, with the results being shown […], respectively.

In a further data set the test system is P. rettgeri. Put plainly: Sensitivity of clinically isolated strains. Type of data set: cell-based. Particulars: Providencia rettgeri; clinical isolates. The protocol:
as §4

The subject of the next data set is P. vulgaris. Put plainly: Sensitivity of clinically isolated strains. Particulars: Proteus vulgaris. Type of data set: cell-based. The protocol:
as §4

The next data set concerns A. calcoaceticus. Description: Sensitivity of clinically isolated strains. Type of data set: cell-based. Particulars: Acinetobacter calcoaceticus; clinical isolates. As to the method: as §4
The next data set has as its system Klebsiella sp. Put plainly: Sensitivity of clinically isolated strains. Type of data set: cell-based. Particulars: clinical isolates. The protocol: as §4
The next data set concerns E. coli. Description: Sensitivity of clinically isolated strains. Particulars: Escherichia coli; clinical isolates. Type of data set: cell-based. As to the method: as §4
In the next data set the test system is H. influenza. Put plainly: Sensitivity of clinically isolated strains. Particulars: clinical isolates. Type of data set: cell-based. As to the method:
as §4

In a further data set the test system is S. marcescens. Description: Sensitivity of clinically isolated strains. The conditions noted are these: Serratia marcescens; clinical isolates. Type of data set: cell-based. The protocol: as §4
The subject of data set [6] is Methycillin-resistant S. aureus. Put plainly: Sensitivity of clinically isolated strains. Type of data set: cell-based. The conditions noted are these: Staphylococcus aureus. As to the method:
as §4

Another data set concerns P. mirabillis. Description: Sensitivity of clinically isolated strains. Type of data set: cell-based. The conditions noted are these: clinical isolates. The protocol: as §4
The next data set deals with S. aureus. Put plainly: Sensitivity of clinically isolated strains. Type of data set: cell-based. The conditions noted are these: Staphylococcus aureus; clinical isolates. As to the method:
as §4

Where two headings read alike, the source gives them in different places.

Regarding `C[C@@H](O)[C@@H]1C(=O)N2C(C(=O)O)=C(SCCN)S[C@H]12` [1-thiathienamycin], in [1], the activity result is given as “strong activity”.

As for `C[C@@H](O)[C@H]1C(=O)N2C(C(=O)O)=C([C@H]3CCCO3)S[C@H]12` [SUN 4435, Potassium (1'R, 2"R, 5R, 6S)-6-(1'-hydroxyethyl)-2-(2"-tetrahydrofuranyl)penem-3-carboxylate], the MIC in the data set on E. coli NIHI JC-2 was found to be 0.78 mg/L; with E. coli W3630/Rms212 it was 1.56 mg/L; in the data set with Pr. vulgaris GN7919, 0.39 mg/L; in the data set on E. coli W3630/Rms213, 0.78 mg/L; against M. luteus ATCC9341, 0.05 mg/L; with K. pneumoniae PC1602, 0.1 mg/L. For the same compound, the MIC was 0.78 mg/L in the data set with Al. fecalis IFO13111; 3.13 mg/L against Ser. marcescens IMA 1136; less than 0.025 mg/L in the data set with B. fragilis GM7000; 0.2 mg/L in the data set on B. fragilis V-280-1; 0.05 mg/L in the data set on S. aureus FAD209P JC-1; 6.25 mg/L in the data set with Pr. morganii IFO3848. The MIC with F. varium ATCC8501 was found to be 0.2 mg/L; against Ent. cloacae 963 it was 3.13 mg/L. Also, the LD50 in “Acute toxicity test” (female mice) turned out to be 456 mg/kg; in “Acute toxicity test” (male mice), 480 mg/kg. In addition, the ED50 was 5.9 mg/kg in the data set with S. aureus Smith [2] (Staphylococcus aureus, po, 144 h, read-out: ED50); 11 mg/kg with E. coli KC-14 [3] (Escherichia coli, KC14, po, 144 h, oral, read-out: ED50); 1.5 mg/kg with E. coli KC-14 [3] (Escherichia coli, KC14, sc, 144 h, subcutaneous, read-out: ED50). In addition, the survival entry in the data set on E. coli KC-14 [4] (oral, 12.5 mg/kg or more, 1.5×10^5 CFU/head) is given as “every heads were found to survive”; with E. coli KC-14 [4] (subcutaneous, 1.5 mg/kg, 3.1×10^5 CFU), “three mice per five survived”; in the data set with E. coli KC-14 [4] (subcutaneous, 2.6 mg/kg or more, 3.1×10^5 CFU), “every heads were found to survive”; in the data set on S. aureus Smith [5] (oral, 3.9 mg/kg, 3.6×10^5 CFU/head) it was “three heads out of five survived”; in the data set on S. aureus Smith [5] (oral, 9.6 mg/kg or more, 3.6×10^5 CFU/head), “every heads were found to survive”; in the data set on S. aureus Smith [5] (subcutaneous, 1.6 mg/kg or more, 5.7×10^5 CFU), “every heads were found to survive”.

`C[C@@H](O)[C@H]1C(=O)N2C(C(=O)O)=C([C@H]3CCCO3)S[C@H]12` [SUN 5555, Sodium (1'R, 2"R, 5R, 6S)-6-(1'-hydroxyethyl)-2-(2"-tetrahydofuranyl)penem-3-carboxylate]: the MIC50 against S. pyogenenes was less than 0.025 mg/L; against M. morganii, 1.56 mg/L; against P. rettgeri it was 1.56 mg/L; in the data set with P. vulgaris, 3.13 mg/L; with A. calcoaceticus it was 6.25 mg/L; against Klebsiella sp., 0.78 mg/L. In addition, the MIC50 worked out at 0.78 mg/L with E. coli; 0.39 mg/L with H. influenza; 1.56 mg/L with S. marcescens; 1.56 mg/L in data set [6]; 3.13 mg/L in the data set with P. mirabillis; 0.1 mg/L in the data set on S. aureus. Further, the MIC90 is less than 0.025 mg/L against S. pyogenenes; 6.25 mg/L with M. morganii; 6.25 mg/L with P. rettgeri; 6.25 mg/L in the data set with P. vulgaris; 25 mg/L in the data set with A. calcoaceticus; 1.56 mg/L in the data set on Klebsiella sp.. In addition, the MIC90 in the data set with E. coli is 1.56 mg/L; in the data set on H. influenza, 0.78 mg/L; against S. marcescens, 6.25 mg/L; in data set [6] it was more than 100 mg/L; against P. mirabillis, 6.25 mg/L; against S. aureus, 0.2 mg/L. Besides, the survival result in the data set “Acute toxicity test” (3 g/kg, two male and female mice) is given as “survived”; in the data set “Acute toxicity test” (5 g/kg, five male mice), “one out of five male mice”. In addition, the ED50 is listed as 5.6 mg/kg in the data set on S. aureus Smith [2] (oral, 8640 min) and 13.9 mg/kg with E. coli KC-14 [3] (oral, 8640 min).

Take `CCSC1=C(C(=O)O)N2C(=O)[C@H]([C@@H](C)O)[C@H]2S1` [Sch 29482]: the activity result in [1] is given as “strong activity”.

The values are drawn from patent publication US4997829A, “Penem compounds, and use thereof” (Suntory Limited, priority 1985, dated 1991).
